{
  "source": "patent EP1263429B1",
  "about": "“ANTIVIRAL THERAPY” (Universiteit Utrecht, priority 2000, dated 2001)",
  "key": {"HIV-1Ba-L [1]": {"tested_on": "HIV-1Ba-L", "assay": "HIV-1 replication in acutely infected PBMC, p24-core antigen ELISA", "type": "cell-based", "settings": "for inhibition at 30 µM: 30 µM APHS", "description": "Peripheral blood mononuclear cell (PBMC) fractions are isolated from heparinised blood from HIV-1-, HIV-2- and hepatitis B- seronegative donors (Blood-bank, Utrecht, the Netherlands) by Ficoll-Isopaque gradient separation. Cells are washed twice, stimulated with 4 µg/ml phytohemagglutinin (PHA), and cultured in RPMI-1640 medium supplemented with 5 mM Hepes, 19 mM sodium bicarbonate, 10 µg/ml gentamicin, and 10% heat-inactivated fetal calf serum at a concentration of 1 x 10^6 cells/ml.\n(§1) HIV-1 strain Ba-L is grown to high titer in MDM. The 50% tissue culture infectious dose (TCID50) of the virus stock is determined by endpoint dilution with serial fourfold dilutions in a 96-well microtiter plate on MDM. HIV-1 strain AT is grown to high titer in PHA-stimulated PBMC. The TCID50 of the virus stock is determined by endpoint dilution with serial fourfold dilutions in a 96-well microtiter plate on PBMC.\nMDM, and PBMC, were incubated with HIV at a multiplicity of infection of 0.02, and 0.006 or 0.001, respectively. After two hours cells are washed to remove unbound virus and cultured for 4 to 7 days in different concentrations of the drug under investigation. On day 4, 5 and 7, 0.01 ml of supernatant is removed from the culture and virus in culture supernatant is inactivated in a final concentration of 0.05% empigen (Calbiochem-Novabiochem Co., La Jolla, CA). The presence of HIV-1 in the inactivated supernatant is monitored by checking for the p24-core antigen using the enzyme-linked immunosorbent assay (ELISA) system of John Moore.\n(A, B) Peripheral blood mononuclear cells (PBMC) were isolated from heparinized blood from HIV-1-, HIV-2-, and hepatitis B-seronegative donors and obtained on Ficoll-Hypaque density gradients. Cells were washed twice, stimulated with 5 µg/ml phytohemagglutinin (PHA), and cultured m RPMI-1640 medium supplemented with 5 mM Hepes, 19 mM sodium bicarbonate, 10 µg/mL gentamicin, and 10% heat-inactivated fetal calf serum (PBMC culture medium) at a concentration of 2 x 10^6 cells/ml. After 3 days of incubation stimulated PBMC were recovered from the flasks and infected for 2 hours with HIV-1Ba-L at a multiplicity of infection of 0.01. Afterwards, HIV-infected and mock-infected PBMC were washed twice to remove unbound virus. (A) PBMC were cultured at a density of 6 x 10^5 cells/well with different concentrations of APHS and after 5 days of incubation samples of culture supernatant were collected. (B) PBMC were cultured in suspension at a concentration of 2 x 10^6 cells/ml in Teflon flasks in PBMC culture medium. After 5 days of incubation PBMC were recovered from Teflon flasks, washed twice to remove unbound virus and cultured at a density of 6 x 10^5 PBMC / well with different concentrations of APHS. After 2 days of incubation samples of culture supernatant were collected. p24-core antigen production was quantified using the enzyme-linked immunosorbent assay (ELISA) system of John Moore. […] (C, D) PBMC were isolated from heparinized blood from HIV-1-, HIV-2-, and hepatitis B-seronegative donors and obtained on Ficoll-Hypaque density gradients. PBMC were washed twice and monocytes were purified by countercurrent centrifugal elutriation. Cells were >98% monocytes by criteria of cell morphology on May-Grünwald-Giemsa-stained cytosmears and by nonspecific esterase staining using alpha-naphtylacetate as substrate. […]"}, "HIV-1Ba-L [2]": {"tested_on": "HIV-1Ba-L", "assay": "HIV-1 replication in acutely infected monocyte-derived macrophages (MDM), p24-core antigen ELISA", "type": "cell-based", "description": "PBMC are isolated from heparinized blood from HIV-1-, HIV-2-, and hepatitis B-seronegative donors and obtained on Ficoll-Hypaque density gradients. Cells are washed twice and monocytes are purified by countercurrent centrifugal elutriation. Cells are >98% monocytes by criteria of cell morphology on May-Grünwald-Giemsa-stained cytosmears and by nonspecific esterase staining using alpha-naphtylacetate (Sigma Chemical Co., St. Louis, MO) as substrate. Monocytes are cultured in suspension at a concentration of 2 x 10^6 cells/ml in Teflon flasks (Nalgene, Rochester, NY) in Iscove's modified Dulbeco's medium (IMDM) with 10% heat-inactivated human AB serum negative for anti-HIV antibodies, […], and […] (Sigma) for 7 days.\nas §1, with “HIV-1 strain AT is grown to high titer in PHA-stimulated PBMC.” left out\nMDM, and PBMC, were incubated with HIV at a multiplicity of infection of 0.02, and 0.006 or 0.001, respectively. […] The presence of HIV-1 in the inactivated supernatant is monitored by checking for the p24-core antigen using the enzyme-linked immunosorbent assay (ELISA) system of John Moore. […]"}, "[3]": {"tested_on": "drug-resistant HIV strains", "settings": "Table 2 strains"}},
  "data": [
    {"smiles": "CCCCC#CCSc1ccccc1OC(C)=O", "note": "[APHS, o-(acetoxy-phenyl)hept-2-ynyl sulphide]", "values": [
      {"measurement": "APHS concentrations that inhibit HIV-1 production", "setting": "HIV-1Ba-L [1]; Fig 4, PBMC infected with HIV-1AT or HIV-1BaL, 4 and 5 days of incubation", "result": "above 1 µM"},
      {"measurement": "APHS concentrations that inhibit HIV-1Ba-L replication", "setting": "HIV-1Ba-L [1]; Fig 6A, acute infection of PBMC, multiplicity of infection 0.01, 5 days of incubation", "result": "above 3 µM"},
      {"measurement": "inhibition at 30 µM", "setting": "HIV-1Ba-L [1]; Human immunodeficiency virus 1, 120 h, Fig 6A, acute infection of PBMC, multiplicity of infection 0.01, 5 days", "result": 100, "unit": "%"},
      {"measurement": "inhibition at 1 µM", "setting": "HIV-1Ba-L [1]; Human immunodeficiency virus 1, PBMC, read-out: inhibition of HIV-1BaL production", "result": 50, "unit": "%"},
      {"measurement": "inhibition at 30 µM", "setting": "HIV-1Ba-L [1]; Human immunodeficiency virus 1, Fig 4, PBMC, read-out: inhibition of HIV-1BaL replication", "result": 100, "unit": "%"},
      {"measurement": "APHS concentrations that inhibit p24 production by acutely infected MDM", "setting": "HIV-1Ba-L [2]; 96 h", "result": "above 3 :M"},
      {"measurement": "inhibition at 30 µM", "setting": "HIV-1Ba-L [2]; Human immunodeficiency virus 1, Macrophage, 30 µM APHS, Fig 2, MDM, multiplicity of infection 0.02", "result": 88, "unit": "%"},
      {"measurement": "inhibitory activity against drug resistant strains versus activity against a sensitive strain", "setting": "[3]", "result": "two- to four-fold higher"}
    ]}
  ]
}
